According to patent publication US20250241891A1, “TREATMENT OF ANXIETY” (GH RESEARCH IRELAND LIMITED, priority 2022, published 2025):

Assay: Pharmacokinetics of 5-MeO-DMT and bufotenine after inhalation
Assay type: in vivo, human
Method: Blood samples were obtained at 1; 2; 4; 7; 10; 15; 20; 30; 45 min and 1; 1.5; 2; 3; 4 hours after administration.
PK parameters were generated by algebraic analysis of the concentration versus time plots for each individual. The analysis was carried out using the software Phoenix WinNonlin 6.3.

## COc1ccc2[nH]cc(CCN(C)C)c2c1 [5-MeO-DMT]
3 hours after inhalation, whole dose range 6, 12, 18 mg
  detectability in the plasma: no longer detectable
inhalation, uptitration
  pharmacokinetic measurements with uptitration dosing schemes compared with single doses: Substantially similar results were obtained
Repeated inhalation within a time frame of 1 to 4 hours
  accumulation upon repeated administration: No accumulation is observed
